Measured values reported in publication PMC10671715, “Self-Entrapment of Antimicrobial Peptides in Silica Particles for Stable and Effective Antimicrobial Peptide Delivery System” (International Journal of Molecular Sciences, 2023).
Where two headings read alike, the source gives them in different places. Marks after values point to notes of the source that are not given here.

Experiments:
[1] = test system: Raw264.7 cells; test: Cytotoxicity, MTS assay; type: cell-based, mouse; details: for Cell viability: 24 h, MTS, N = 3
Description: Free peptides and silica particles loaded with them (AMP@Si) were compared for their cytotoxicity against mouse macrophages (Raw264.7 cells) and their hemolytic activity against RBCs. Free AMP or AMP@Si was added to each well of a 96-well plate in 2-fold serial dilutions to 50 μL with DMEM medium containing 10% FBS and 1% antibiotics. Raw264.7 macrophages at a concentration of 4 × 10^4 cells per 50 μL were added to the wells containing the peptide to give a final volume of 100 μL. Cell proliferation was confirmed by MTS assay (Promega, Madison, WI, USA) after 24 h or 5 days of incubation. The MTS tetrazolium compound was reduced by viable cells to generate a colored formazan product. The intensity of the color at 490 nm is proportional to the number of viable cells in the sample. To calculate cell viability, the absorbance of cells treated with the peptide was divided by the absorbance of cells that were not treated with the peptide. The resulting quotient was then expressed as a percentage. […] The supernatant (100 μL) was collected after centrifugation at 1000× g for 5 min, and the absorbance (A) was measured at 570 nm. The value of “zero hemolysis” was determined by the absorbance of PBS alone, and 100% hemolysis was determined by the absorbance of the supernatant obtained from 1% (v/v) Triton X-100-treated RBCs. The percentage of hemolysis was calculated as hemolysis (%) = (AAMP − APBS)/(ATriton − APBS) × 100.
Figure 7 The hemolytic activity and cytotoxicity of AMPs. […] (b) The cytotoxicity of AMP was measured 24 h after the addition of each indicated concentration of AMP to Raw264.7 cells grown overnight. Cell survival is expressed as a percentage of the negative control grown without AMP.
Figure S4. […] The cytotoxicity of AMP was measured 5 days after incubation of Raw 264.7 cells (4 x 10^5 cells/ mL) in the presence of each indicated concentration of AMP Cell survival was expressed as a percentage of the negative control grown without AMP. […]

[2] = test system: S. aureus; type: cell-based, Staphylococcus aureus (ATCC 29213); details: 18 h
Description: (§1) Two Gram-negative bacterial strains, namely Escherichia coli (wild type W2110) and Pseudomonas aeruginosa (wild type PK01) and Gram-positive strain, […] (ATCC 29213) were obtained from the Department of Biotechnology and Bioinformatics at Korea University.
(§2) The broth microdilution assay was used to test the antimicrobial activity of AMPs, as previously reported. Briefly, bacteria were grown to mid-logarithmic growth phase in Mueller Hinton Broth (MHB) media at 37 °C. Then, in 96-well plates, 50 µL of peptide solution (0–320 µM) diluted using a 2-fold serial dilution method was mixed with an equal volume of bacterial solution (3 × 10^6 CFU/mL) and incubated for 18 h at 37 °C with shaking at 200 rpm. The negative control was the culture medium itself. […] The assay was performed in triplicate.

[3] = test system: P. aeruginosa (after trypsin treatment of AMP); test: Residual antibacterial activity after trypsin treatment; details: 300 μM in 1× PBS, 0.025% trypsin, 37 °C, 3 min, stopped with FBS; overnight culture, OD600; N = 3
Description: (§3) The absorbance value of the bacteria in the absence of AMP was used as the negative control. The absorbance value of the bacteria grown in the presence of trypsinized AMP was subtracted from that of the negative control, and the resulting difference was expressed as a percentage fraction of the negative control, yielding the residual antibacterial activity of AMP after trypsin treatment (Figure 6a).
(§4) Free AMP or AMP@Si was dissolved in 1 × PBS at a concentration of 300 μM and left at 37 °C for 3 min in the presence of 0.025% trypsin, followed by the addition of fetal bovine serum (FBS) to stop the activity of trypsin. Bacteria were incubated overnight with each trypsinized peptide formula, and broth absorbance was measured at 600 nm. As a negative control, the absorbance of the strain grown in the absence of the peptide was set. To determine the remaining antimicrobial activity of AMP after treatment of trypsin, the absorbance of the sample treated with AMP was subtracted from the absorbance of the negative control. The resulting difference was then expressed as a percentage of the absorbance of the negative control.
(§5) (a) The residual antibacterial activity was calculated by taking the difference in optical density at 600 nm between the negative control and the sample containing the trypsinized AMP. It was then divided by the optical density of the negative control and multiplied by 100. Each bacterial solution grown in a medium without AMP is used as a corresponding negative control. […] The image is a 10,000× magnification, the inside image is a 20,000× magnification, and the scale bar represents 1 µm.

[4] = test system: S. aureus (after trypsin treatment of AMP); test: as above; details: 300 μM in 1× PBS, 0.025% trypsin, 37 °C, 3 min, stopped with FBS; overnight culture, OD600; N = 3
Description: as §3, §4, §5

[5] = test system: E. coli (after trypsin treatment of AMP); test: as above; details: 300 μM in 1× PBS, 0.025% trypsin, 37 °C, 3 min, stopped with FBS; overnight culture, OD600; N = 3
Description: as §3, §4, §5

[6] = test system: E. coli; type: cell-based, Escherichia coli (wild type W2110); details: 18 h
Description: as §1, §2

[7] = test system: sheep red blood cells (RBCs); test: Hemolytic activity assay; type: cell-based; details: at 77.5 μM (free peptides: up to 77.5 μM); 37 °C, 1 h, A570, 100% = 1% Triton X-100; N = 3
Description: Free peptides and silica particles loaded with them (AMP@Si) were compared for their cytotoxicity against mouse macrophages (Raw264.7 cells) and their hemolytic activity against RBCs. Free AMP or AMP@Si was added to each well of a 96-well plate in 2-fold serial dilutions to 50 μL with DMEM medium containing 10% FBS and 1% antibiotics. Raw264.7 macrophages at a concentration of 4 × 10^4 cells per 50 μL were added to the wells containing the peptide to give a final volume of 100 μL. Cell proliferation was confirmed by MTS assay (Promega, Madison, WI, USA) after 24 h or 5 days of incubation. The MTS tetrazolium compound was reduced by viable cells to generate a colored formazan product. […] To calculate cell viability, the absorbance of cells treated with the peptide was divided by the absorbance of cells that were not treated with the peptide. The resulting quotient was then expressed as a percentage. […] The supernatant (100 μL) was collected after centrifugation at 1000× g for 5 min, and the absorbance (A) was measured at 570 nm. The value of “zero hemolysis” was determined by the absorbance of PBS alone, and 100% hemolysis was determined by the absorbance of the supernatant obtained from 1% (v/v) Triton X-100-treated RBCs. The percentage of hemolysis was calculated as hemolysis (%) = (AAMP − APBS)/(ATriton − APBS) × 100. […]

[8] = test system: P. aeruginosa; type: cell-based, Pseudomonas aeruginosa (wild type PK01); details: 18 h
Description: as §1, §2

[9] = test system: S. aureus; design: method as in PMID 33236626; details: cited from earlier work
[10] = free peptide, MHB, 2-fold dilution 0–320 µM, 37 °C, OD600, mean ± standard error of three replicate experiments

**Q.** Which Cytotoxicity ([1]; 6 µM) does the source give for “Ac-RKKRRQRRRGSSKRIVQRIKDFLR-NH2 [CPP-KR12]” here?
**A.** Its Cytotoxicity is “not cytotoxic”.

**Q.** What about the Cell viability ([1]; 19.38 μM) of the same molecule?
**A.** Its Cell viability is 80%.

**Q.** And the Cell viability ([1]; 77.5 μM)?
**A.** Its Cell viability is 10%.

**Q.** And the “Minimum inhibitory concentration (MIC)” value [2, 10]?
**A.** Its value is 22.80 ± 8.48 µM.

**Q.** And the “Residual antibacterial activity after trypsin treatment” value (from here on “Residual antibacterial activity”) [3]?
**A.** The value was “approximately 15%”.

**Q.** What about the “Residual antibacterial activity” value [4] of the same molecule?
**A.** Its value is “approximately 15%”.

**Q.** What about the “Residual antibacterial activity” value [5] of the same molecule?
**A.** Its value is “approximately 10%”.

**Q.** What about the entrapment efficiency (EE) of the same molecule?
**A.** The entrapment efficiency (EE) was 95%.

**Q.** What about the “Minimum inhibitory concentration (MIC)” value [6, 10] of the same molecule?
**A.** Its value is 12.09 ± 4.97 µM.

**Q.** What about the Hemolysis [7] of the same molecule?
**A.** Its Hemolysis is “less than 1%”.

**Q.** What about the “Minimum inhibitory concentration (MIC)” value [8, 10] of the same molecule?
**A.** Its value is 6.12 ± 3.72 µM.

**Q.** For `CC(=O)N[C@@H](CCCNC(=N)N)C(=O)N[C@@H](CCCCN)C(=O)N[C@@H](CCCCN)C(=O)N[C@@H](CCCNC(=N)N)C(=O)N[C@@H](CCCNC(=N)N)C(=O)N[C@@H](CCC(N)=O)C(=O)N[C@@H](CCCNC(=N)N)C(=O)N[C@@H](CCCNC(=N)N)C(=O)N[C@@H](CCCNC(=N)N)C(N)=O`, which entrapment efficiency (EE) is on record?
**A.** Its entrapment efficiency (EE) is 95%.

**Q.** Which “Minimum inhibitory concentration (MIC)” value [2] does the source give for “Ac-KRIVQRIKDFLR-NH2 [KR12, reference compound]” here?
**A.** The value was >320 ^a µM.

**Q.** And the “Minimum inhibitory concentration (MIC)” value [6]?
**A.** Its value is 103.36 ± 25.82 µM.

**Q.** What about the Hemolysis [7] of the same molecule?
**A.** Its Hemolysis is “less than 1%”.

**Q.** What about the “Minimum inhibitory concentration (MIC)” value [8] of the same molecule?
**A.** The value was 181.98 ± 68.20 µM.

**Q.** With “YGRKKRRQRRKRIVQRIKDFLR [TAT-KR-12, literature peptide developed for treatment of intracellular S. aureus infection]” as the molecule, how does the “Antibacterial activity against S. aureus” value [9] read?
**A.** The value was “enhanced antibacterial activity”.
